Experimental findings from patent publication US20250213478A1, “CATIONIC LIPID HAVING DISULFIDE BOND, LIPID MEMBRANE STRUCTURE INCLUDING SAME, NUCLEIC ACID INTRODUCTION AGENT AND PHARMACEUTICAL COMPOSITION CONTAINING ANY ONE OF SAME, METHOD FOR INTRODUCING NUCLEIC ACID INTO CELL OR TARGET CELL, AND METHOD FOR PRODUCING CELLULAR PHARMACEUTICAL” (NOF Corporation, priority 2022, published 2025) are described below.

Series [1] is described as follows: Measurement of Liposomal pKa of LNP (TNS fluorescence). The settings on record: LNP without nucleic acid, cationic lipid:DOPC:Chol=52.5:7.5:40 + about 1.5 mol DMG-PEG2k; pH at which relative TNS fluorescence intensity was 50%. It is filed as physicochemical. The protocol: Lipid nanoparticles (LNP) without containing nucleic acid were used for the evaluation of Liposomal pKa.
A 10 mM ethanol solution of cationic lipid, a 5 mM ethanol solution of DOPC, and a 10 mM ethanol solution of Chol were mixed at desired ratio (cationic lipid:DOPC:Chol=52.5:7.5:40 (molar ratio)) in an Eppendorf tube to achieve the total lipid amount of 720 nmol. To the obtained mixture was further added DMG-PEG2k (2 mM ethanol solution) in an amount of about 1.5 mol with respect to the total amount 100 mol of cationic lipid, DOPC, and Chol, and then ethanol was added to prepare an ethanol solution of the lipid (total amount: 360 μL).
(§1) An acidic malic acid buffer (20 mM, pH 3.0) (1080 μL) containing NaCl at a final concentration of 30 mM and an ethanol solution (360 μL) of lipid were each weighed in a syringe. Using an ultra high-speed nanomedicament producing apparatus NanoAssmblr (manufactured by Precision NanoSystems), LNP was prepared under the conditions of addition rate of acidic buffer solution: 3 mL/min, addition rate of ethanol solution of lipid: 1 mL/min, and syringe holder temperature: 25° C., and collected in a 15 mL tube. MES buffer (pH 6.5) (3000 μL) was added to the 15 mL tube, the obtained mixture was transferred to Amicon Ultra 4, and ultrafiltration was performed under centrifugation conditions (25° C., 1000 g, 6 min) to concentrate the mixture to about 100 μL. The obtained concentrate was diluted with PBS to 4 mL, and the mixture was concentrated again under centrifugation conditions (25° C., 1000 g, 6 min), and this operation was performed twice. The obtained concentrate was diluted with PBS to a lipid concentration of 0.5 mM to give a dispersion containing LNP.
20 mM Citrate buffer, sodium phosphate buffer, and tris HCl buffer, each containing NaCl at a final concentration of 150 mM and adjusted to various pHs within the range of pH 3.0 to 10.0, were prepared. TNS (manufactured by Sigma) was diluted with ultrapure water to 0.6 mM. TNS solution (2 μL), dispersions (12 μL) containing LNP prepared in [Experimental Example 1], 1., and buffers adjusted to various pHs (186 μL) were added to a black 96 well plate. The plate was protected from light and shaken at 400 rpm for 10 min. The fluorescence intensity (excitation: 321 nm/emission: 447 nm) was measured using a plate reader (manufactured by TECAN). The relative fluorescence intensity was calculated as a percentage, with the maximum value of the fluorescence intensity in each LNP being 100% and the minimum value being 0%. Furthermore, the pH at which the relative fluorescence intensity was 50% was taken as Liposomal pKa. In Comparative Example, the cationic lipid described in the aforementioned Table 3 were used.

A short description of series [2]: Particle size, PdI and zeta potential of mRNA-encapsulating LNPs (dynamic light scattering). Type of series: physicochemical. The settings on record: mRNA-encapsulating LNP, cationic lipid:DOPC:Chol=55:5:40 + about 1 mol DMG-PEG2k; for PdI / particle size: dynamic light scattering; for zeta potential: physiological pH. The procedure:
A 10 mM ethanol solution of cationic lipid, a 5 mM ethanol solution of DOPC, and a 10 mM ethanol solution of Chol were mixed at desired ratio (cationic lipid:DOPC:Chol=55:5:40 (molar ratio)) in an Eppendorf tube to achieve the total lipid amount of 720 nmol. To the obtained mixture was further added DMG-PEG2k (2 mM ethanol solution) in an amount of about 1 mol with respect to the total amount 100 mol of cationic lipid, DOPC, and Chol, and then ethanol was added to prepare an ethanol solution of the lipid (total amount: 360 μL).
An acidic buffer solution (total amount: 1080 μL) of nucleic acid was prepared by weighing 7.2 μg of mRNA solution (0.6 mg/mL) in a 5 mL tube and adding acidic malate buffer (20 mM, pH 3.0) containing NaCl at a final concentration of 30 mM.
as §1, with “buffer solution of nucleic” for “malic”, “acid” for “acid buffer (20 mM, pH 3.0) (1080 μL) containing NaCl at a final concentration of 30 mM”, “solution” for “solution (360 μL)”, “solution of nucleic acid:” for “solution:”, “2” for “0.5”
The particle size, PdI (Polydispersity Index), and zeta potential of the mRNA-encapsulating LNP prepared by the method of the above-mentioned 1 were measured by a dynamic light scattering method. In Comparative Example, the cationic lipid described in the aforementioned Table 3 were used.

The subject of a further series is HeLa cells. Nature of the series: Evaluation of in vitro gene expression in HeLa cell (luciferase mRNA-encapsulating LNP). Type of series: cell-based, human. The settings on record: for cumulative luciferase luminescence intensity over 24 hr: luciferase mRNA 0.4 μg per dish, LNP cationic lipid:DOPC:Chol:DMG-PEG2k=55:5:40:1; for gene expression activity compared to Comparative Example: result in words. The procedure: (§2) LNP encapsulating mRNA that expresses luciferase (cationic lipid:DOPC:Chol:DMG-PEG2k=55:5:40:1 (molar ratio)) was prepared by the method described in [Experimental Example 2], 1.
HeLa cells, which are human cervical cancer cells, were seeded in a 3.5 cm dish at 5.0×10^4 cells/2 mL/Dish 24 hours before transfection. After 24 hours, the medium was exchanged with a culture medium (D-MEM) containing 0.1 mM D-luciferin. Prepared mRNA-encapsulating LNP was diluted with PBS such that the concentration of mRNA was about 8 μg/mL. The diluted mRNA-encapsulating LNP solution (about 50 μL, mRNA: 0.4 μg) was added to the 3.5 cm dish and set in an incubator luminometer KronosDio. The luminescence intensity of luciferase was measured for 2 min every one hour. The cumulative luciferase luminescence intensity for 24 hr was calculated from the obtained time change of expression. For example, “1.0E+06” means “1.0×10^6”. In Comparative Example, the cationic lipid described in the aforementioned Table 3 were used.

In a further series the test system is BALB/c mouse. Nature of the series: Evaluation of in vivo gene expression (luciferase mRNA-encapsulating LNP, IVIS of isolated organs). The settings on record: for relative value based on Comparative Example (amount of luminescence in spleen): relative to O-Ph-P4C2 LNP = 1.00; for amount of luminescence in each organ: heart / amount of luminescence in each organ: kidney / amount of luminescence in each organ: liver / amount of luminescence in each organ: lung / amount of luminescence in each organ: spleen: 4.5 hr + 15 min after administration; for amount of luminescence in each organ: spleen: spleen (Table 7). The procedure: as §2
The prepared each mRNA-encapsulating LNP dispersion was administered from the tail vein of BALB/c mouse (male, 5-week-old). The dose of mRNA was set to 0.05 mg per 1 kg body weight of the mouse, and the dose of the mRNA-encapsulating LNP dispersion was set to 10 μL per 1 g body weight of the mouse. After 4.5 hr from the administration of the mRNA-encapsulating LNP dispersion, a PBS solution of D-luciferin potassium was administered into the abdominal cavity of the mouse. The dose of D-luciferin potassium was set to 3 mg per mouse, and the dose of the PBS solution of D-luciferin potassium was set to 200 μL per mouse. After 15 min from the administration of the PBS solution of D-luciferin potassium, the mouse was euthanized, and the liver, spleen, kidney, heart, and lung were isolated. The luminescence in each organ was quantified using an in vivo imaging system (IVIS) with an exposure of 10 sec. The amount of luminescence in each organ was quantified by image analysis using Live Imaging software attached to IVIS. The amount of luminescence (photons/sec) was calculated from the acquired image and used as an index of gene expression activity. “E+0a” (a: integer) indicated in Table 7 and Table 8 means “10^a”. For example, “1.0E+02” means “1.0×10^2”. In Comparative Example, the cationic lipid described in the aforementioned Table 3 were used.

Molecules are shown by their SMILES.

As usually defined, the pKa is the pH at which an ionisable group is half protonated. With `CCCCCCCCCCCCCCC(CCCCCCCCCCCCCC)C(=O)Oc1ccc(CC(=O)OCCSSCCOC(=O)CCCN(C)C)cc1` [Example 7], in series [1], the pKa is 7.8. In series [2], the PdI is listed as 0.077, the particle size was 92 nm and the zeta potential came out at 6.8 mV. In the series on HeLa cells, the “cumulative luciferase luminescence intensity over 24 hr” value was determined as 2.13E+08 RLU and the “gene expression activity compared to Comparative Example” value is given as “superior gene expression activity”. Moreover, the “relative value based on Comparative Example (amount of luminescence in spleen)” value (“relative value based” below) in the series on BALB/c mouse was found to be 0.37. Besides, in the series with BALB/c mouse (tail vein, mRNA 0.05 mg/kg), the “amount of luminescence in each organ: heart” value (from here on “amount of luminescence … heart”) was found to be 6.86E+05 photons/sec, the “amount of luminescence in each organ: kidney” value (shortened to “amount … kidney”) is 6.35E+05 photons/sec, the “amount of luminescence in each organ: liver” value (“amount of luminescence … liver” for short) was determined as 1.23E+06 photons/sec and the “amount of luminescence in each organ: lung” value (shortened to “amount of luminescence … lung”) was 8.28E+05 photons/sec. In the series on BALB/c mouse (tail vein, mRNA 0.05 mg/kg), the “amount of luminescence in each organ: spleen” value (shortened to “amount … in each organ: spleen”) is given as 4.03E+06 photons/sec.
On to `CCCCC/C=C\C/C=C\CCCCCCCC(=O)OCC(C)(COC(=O)CCCCCCC/C=C\C/C=C\CCCCC)C(=O)Oc1ccc(CC(=O)OCCSSCCOC(=O)NCCN(CC)CC)cc1` [Example 35], for which the pKa in series [1] is 6.8. Moreover, in series [2], the PdI is recorded as 0.068, the particle size is 70 nm and the zeta potential was −4.0 mV. In the series on HeLa cells, the “cumulative luciferase luminescence intensity over 24 hr” value was found to be 6.34E+07 RLU and the “gene expression activity compared to Comparative Example” value is listed as “superior gene expression activity”. The “relative value based” value in the series with BALB/c mouse is listed as 0.37. For the same compound, in the series on BALB/c mouse (tail vein, mRNA 0.05 mg/kg), the “amount of luminescence … heart” value stood at 6.31E+05 photons/sec, the “amount … kidney” value is on record as 3.94E+05 photons/sec, the “amount of luminescence … liver” value was determined as 1.35E+07 photons/sec and the “amount of luminescence … lung” value is 4.65E+05 photons/sec. The “amount … in each organ: spleen” value in the series on BALB/c mouse (tail vein, mRNA 0.05 mg/kg) is given as 4.03E+06 photons/sec.
For `CCCCCCCCCCCCCCCCC(CCCCCCCCCCCCCCCC)C(=O)Oc1ccc(CC(=O)OCCSSCCOC(=O)NCCN(C)C)cc1` [Example 21], in series [1], the pKa came out at 7.9. Moreover, in series [2], the PdI came to 0.118, the particle size was 116 nm and the zeta potential stood at 6.4 mV. In the series with HeLa cells, the “cumulative luciferase luminescence intensity over 24 hr” value stood at 1.22E+08 RLU and the “gene expression activity compared to Comparative Example” value is on record as “superior gene expression activity”. The “relative value based” value in the series on BALB/c mouse came to 0.05. In the series with BALB/c mouse (tail vein, mRNA 0.05 mg/kg), the “amount of luminescence … heart” value is given as 3.41E+05 photons/sec, the “amount … kidney” value worked out at 5.83E+05 photons/sec, the “amount of luminescence … liver” value turned out to be 3.68E+05 photons/sec and the “amount of luminescence … lung” value is recorded as 6.51E+05 photons/sec. For the same compound, the “amount … in each organ: spleen” value in the series with BALB/c mouse (tail vein, mRNA 0.05 mg/kg) is listed as 5.86E+05 photons/sec.
As for `CCCCCCCCCCCCCCCCC(CCCCCCCCCCCCCCCC)C(=O)Oc1ccc(CC(=O)OCCSSCCOC(=O)NCCN(CC)CC)cc1` [Example 22], the pKa in series [1] was 7.5. In addition, in series [2], the PdI worked out at 0.090, the particle size stood at 96 nm and the zeta potential was 4.7 mV. Also, in the series with HeLa cells, the “cumulative luciferase luminescence intensity over 24 hr” value stood at 2.38E+08 RLU and the “gene expression activity compared to Comparative Example” value was “superior gene expression activity”. For the same compound, in the series with BALB/c mouse, the “relative value based” value was 0.29. Further, in the series with BALB/c mouse (tail vein, mRNA 0.05 mg/kg), the “amount of luminescence … heart” value is 3.91E+05 photons/sec, the “amount … kidney” value was 4.45E+05 photons/sec, the “amount of luminescence … liver” value is listed as 8.31E+06 photons/sec and the “amount of luminescence … lung” value was found to be 5.20E+05 photons/sec. The “amount … in each organ: spleen” value in the series with BALB/c mouse (tail vein, mRNA 0.05 mg/kg) is listed as 3.16E+06 photons/sec.
For the compound `CCCCCCCC/C=C\CCCCCCCC(=O)Oc1ccc(CC(=O)OCCC2CCN(CCSSCCN3CCC(CCOC(=O)Cc4ccc(OC(=O)CCCCCCC/C=C\CCCCCCCC)cc4)CC3)CC2)cc1` [Comparative Example, O-Ph-P4C2, reference compound], in series [1], the pKa came out at 6.3. In addition, in series [2], the PdI worked out at 0.064, the particle size amounted to 73 nm and the zeta potential is listed as −1.5 mV. Moreover, the “cumulative luciferase luminescence intensity over 24 hr” value with HeLa cells was determined as 1.11E+07 RLU. In addition, the “relative value based” value in the series on BALB/c mouse was 1.00. Further, in the series with BALB/c mouse (tail vein, mRNA 0.05 mg/kg, spleen (Table 8)), the “amount of luminescence in spleen” value amounted to 1.08E+07 photons/sec.
